# Source: patent US10208074B2, “Pyrazole compounds and method for making and using the compounds” (Rigel Pharmaceuticals, Inc., priority 2015, dated 2019)
# Where a name gives a salt, the structure may show the parent alone.
# Test system: IL-23p19
# Assay: LPS induced IL23p19 in THP-1 cells (with IFNγ primed) assay
# Format: cell-based, Human
# Conditions: Homo sapiens, THP-1, 18 h, THP-1 cells, IFNγ primed, LPS 1 ug/mL, 18 hours, 10 pt; read-out: IL23-p19 ELISA, THP1-IFNy, LPS, 10 pt EC50
# Excerpt: LPS Induced IL23p19 in THP-1 Cells (with IFNγ Primed) Assay
# THP-1 Cells (ATCC, Cat#TIB-202), Dimethyl Sulfoxide (DMSO) (Sigma-Aldrich, Cat#D2650), RPMI 1640 (Cellgro, Cat#10-040-CM), Fetal Bovine Serum (Sigma, Cat#F4135), Albumin From Bovine Serum (BSA) (Sigma-Aldrich, Cat#A7906), LPS (Serotype K-235, Sigma, Product Number L 2143), IFNγ (Peprotech, Cat#300-02) Capture antibody: Human IL-23p19 ELISA (e-Bioscience, Cat. #14-7238-85), Detection antibody: Primary Mouse Biotinylated anti-human IL-12(p40/p70) (e-Bioscience, Cat. #13-7129-85), Secondary HRP-conjugated Streptavidin (R&D Systems, Cat#DY998), 1×PBST Washing Buffer (PBS-Tween tablet) (VWR International, Cat#80058-558), ELISA Blocking Buffer (PBS with 1% BSA), ELISA Dilution Buffer (PBS with 1% BSA), 384 Well Flat-Bottom, MaxiSorp Black Immuno Plates (Thermo Scientific, Cat#12-565-346), 384 Well Flat-Bottom, White Tissue Culture Plates (Thermo Scientific, Cat#12-565-343), Super Signal ELISA Pico Chemiluminescent Substrate (Thermo Scientific, Cat#37070), Cell Titer Glo reagent (Promega, Cat#G7573), Positive control, IKK2VI inhibitor (Calbiochem, Cat#401483), AquaMax 4000 plate washer (Molecular Devices), Luminometer, Wallac Victor2 1420 Multilabel Counter.
# On day 1, 50K/well THP-1 cells were seeded and primed with IFNγ (50 ng/mL) in 384-well plates for about 18 hours in RPMI media with 10% FBS. On day 2, the compound was serially diluted in DMSO from 5 mM in 3-fold dilutions, and then diluted 1:125 in RPMI media with 10% FBS. 50 μL/well 2× compound was added to 50 μL/well THP-1 cells (with IFNγ primed) in duplicate in 384 well tissue culture plates. The cells were pre-incubated with compound for 1 hour at 37° C., 5% CO2 before addition of 10 μL/well 11×LPS to give a final concentration of 1 ug/mL LPS. Day 3, after stimulation for 18 hours at 37° C., 5% CO2, the assay plate was centrifuged and 70 μL/well supernatant was harvested. IL-23p19 protein in 70 μL/well of supernatant was measured by sandwich ELISA, and 25 μl/well Cell Titer Glo reagent was added to the remaining cells to measure compound toxicity.
# Maxisorp immuno ELISA plates were pre-coated with 25 μL/well of anti-IL-23p19 capture antibody (2.5 ug/mL) in PBS overnight at room temperature. After washing with 1× PBST, the plates were blocked using 100 μL/well of 1% BSA in PBS for 2 hours at room temperature. The plates were washed three times with 1×PBST and 70 μL/well supernatant were added. The plates were incubated at room temperature for 2 hours with shaking and washed three times with 1×PBST. 25 μL/well of biotin labeled anti-IL-12(p40/p70) detection antibody (100 ng/mL) in PBS with 1% BSA was added and the plates were incubated at room temperature for 2 hours with shaking. After washing three times with 1×PBST, 25 μL/well of streptavidin-HRP (1:200) in PBS with 1% BSA was added and the plates were incubated at room temperature for 20 minutes with shaking. The plates were washed three times with 1× PBST and 25 μL/well of Super Signal ELISA Pico Chemiluminescent Substrate were added. The plates were read with a luminometer, and the chemiluminescence values were entered into Athena (Rigel) for curve fitting, EC50 calculation, and database storage.
row,Structure (SMILES),EC50 [µM]
1,"CCCOCn1cc(NC(=O)c2ccc(-c3c[nH]c([N+](=O)[O-])c3)o2)c(-c2ccccn2)n1 [Compound I-24, 5-(5-nitro-1H-pyrrol-3-yl)-N-(1-(propoxymethyl)-3-(pyridin-2-yl)-1H-pyrazol-4-yl)furan-2-carboxamide]",4.22
2,"COCCOCCn1cc(-c2ccc(C(=O)Nc3cn(CCOCCOC)nc3-c3ccccn3)o2)cn1 [Compound I-52, 5-(1-(2-(2-methoxyethoxy)ethyl)-1H-pyrazol-4-yl)-N-(1-(2-(2-methoxyethoxy)ethyl)-3-(pyridin-2-yl)-1H-pyrazol-4-yl)furan-2-carboxamide formate]",1.38
3,"CCO[C@H]1C[C@@H](n2cc(NC(=O)c3csc(-c4cn[nH]c4)n3)c(C(F)(F)F)n2)C1 [II-62, N-(1-((1s,3s)-3-ethoxycyclobutyl)-3-(trifluoromethyl)-1H-pyrazol-4-yl)-2-(1H-pyrazol-4-yl)thiazole-4-carboxamide]",6.48
4,"CCO[C@H]1C[C@@H](n2cc3c(n2)CCCN3C(=O)c2csc(-c3cn[nH]c3)n2)C1 [II-67, (2-(1H-pyrazol-4-yl)thiazol-4-yl)(2-((1s,3s)-3-ethoxycyclobutyl)-2,5,6,7-tetrahydro-4H-pyrazolo[4,3-b]pyridin-4-yl)methanone]",26.2
5,"Cn1cc(NC(=O)c2csc(-c3cn[nH]c3)n2)c(C#N)n1 [II-137, N-(3-cyano-1-methyl-1H-pyrazol-4-yl)-2-(1H-pyrazol-4-yl)thiazole-4-carboxamide]",0.206

# Results, then the molecule that gave them:
row,EC50 [µM],Structure (SMILES)
1,3.76,"O=C(Nc1cn(C2CCC2)nc1-c1ccccn1)c1ccc(-c2cnn(C3CCC3)c2)o1 [Compound I-122, 5-(1-cyclobutyl-1H-pyrazol-4-yl)-N-(1-cyclobutyl-3-(pyridin-2-yl)-1H-pyrazol-4-yl)furan-2-carboxamide 2,2,2-trifluoroacetate]"
2,6.16,"COc1ccc(Cn2cc(-c3nc(C(=O)Nc4cn(CCF)nc4-c4ccccn4)cs3)cn2)cc1 [II-52, N-(1-(2-fluoroethyl)-3-(pyridin-2-yl)-1H-pyrazol-4-yl)-2-(1-(4-methoxybenzyl)-1H-pyrazol-4-yl)thiazole-4-carboxamide]"
3,24.1,"COc1ccc(Cn2cc(-c3nc(C(=O)Nc4c[nH]nc4-c4ccccn4)cs3)cn2)cc1 [II-53, 2-(1-(4-methoxybenzyl)-1H-pyrazol-4-yl)-N-(3-(pyridin-2-yl)-1H-pyrazol-4-yl)thiazole-4-carboxamide]"
4,0.615,"CC1(O)CC(n2cc(NC(=O)c3csc(-c4cn[nH]c4)n3)c(-c3ccccn3)n2)C1 (stereo not shown) [II-87, N-(1-(3-hydroxy-3-methylcyclobutyl)-3-(pyridin-2-yl)-1H-pyrazol-4-yl)-2-(1H-pyrazol-4-yl)thiazole-4-carboxamide]"
5,0.109,"CCO[C@H]1C[C@@H](n2cc(NC(=O)c3csc(-c4c(C)n[nH]c4C)n3)c(-c3ccccn3)n2)C1 [II-93, 2-(3,5-dimethyl-1H-pyrazol-4-yl)-N-(1-((1,3-cis)-3-ethoxycyclobutyl)-3-(pyridin-2-yl)-1H-pyrazol-4-yl)thiazole-4-carboxamide]"
6,24.6,"O=C(Nc1cn(C(F)F)nc1-c1ccccn1)c1csc(-c2cnn(C(F)F)c2)n1 [II-98, 2-(1-(difluoromethyl)-1H-pyrazol-4-yl)-N-(1-(difluoromethyl)-3-(pyridin-2-yl)-1H-pyrazol-4-yl)thiazole-4-carboxamide]"
7,8.08,"COc1ccc(Cn2cc(-c3nc(C(=O)Nc4cn(CC(O)C(F)(F)F)nc4-c4ccccn4)cs3)cn2)cc1 (stereo not shown) [II-103, 2-(1-(4-methoxybenzyl)-1H-pyrazol-4-yl)-N-(3-(pyridin-2-yl)-1-(3,3,3-trifluoro-2-hydroxypropyl)-1H-pyrazol-4-yl)thiazole-4-carboxamide]"
8,5.55,"COc1ccc(Cn2cc(-c3nc(C(=O)Nc4cn(C(=O)N(C)C)nc4-c4ccccn4)cs3)cn2)cc1 [II-105, N-(1-(dimethylcarbamoyl)-3-(pyridin-2-yl)-1H-pyrazol-4-yl)-2-(1-(4-methoxybenzyl)-1H-pyrazol-4-yl)thiazole-4-carboxamide]"
9,0.377,"O=C(Nc1cn(C(=O)N2CCOCC2)nc1-c1ccccn1)c1csc(-c2cn[nH]c2)n1 [II-129, N-(1-(morpholine-4-carbonyl)-3-(pyridin-2-yl)-1H-pyrazol-4-yl)-2-(1H-pyrazol-4-yl)thiazole-4-carboxamide]"
10,20.3,"Cn1cc(NC(=O)c2coc(-c3cnn(CC4CC4)c3)n2)c(-c2ccccn2)n1 [III-1, 2-(1-(cyclopropylmethyl)-1H-pyrazol-4-yl)-N-(1-methyl-3-(pyridin-2-yl)-1H-pyrazol-4-yl)oxazole-4-carboxamide]"

# Same assay, conditions: Homo sapiens, THP-1, 18 h, read-out: IL23-p19 ELISA, THP1-IFNy, LPS, 10 pt EC50 (μM)
row,Structure (SMILES),EC50 [µM]
1,"CCOP(=O)(Cn1cc(-c2nc(C(=O)Nc3cn(C)nc3-c3ccccn3)cs2)cn1)OCC [II-7, diethyl ((4-(4-((1-methyl-3-(pyridin-2-yl)-1H-pyrazol-4-yl)carbamoyl)thiazol-2-yl)-1H-pyrazol-1-yl)methyl)phosphonate]",6.09
